The target of one series is T1, PI3Kalpha (Homo sapiens, UniProt P42336).
T1 construct: in some cases as full-length kinases, in some cases as truncated fragments; purchased Upstate 14-602
Kind of series: Cell-free kinase assay (ALPHA technology), PI3K-ALPHA. It counts as biochemical. The following applies: 100 μM ATP, recombinant human kinase. On the procedure:
(§1) The inhibitory effect of the inventive compounds was tested on various human serine/threonine kinases, tyrosine kinases and lipid kinases in enzymatic assays. Recombinant human kinases, for example Erk2, PI3Kalpha, -beta, -gamma, -delta, p38alpha, p38gamma, Jnk1, Jnk2 and others were used, in some cases as full-length kinases, in some cases as truncated fragments—but at least consisting of the functional kinase domains. The commercial kinase proteins (Proqinase, Upstate) were used as recombinant fusion proteins with GST (glutathione S-transferase) tag or His tag. Depending on the substrate type, the different kinase reactions were quantified by means of suitable ALPHA™ beads (PerkinElmer).
(§2) The substrate testing on the Erk assay is described in detail below. Selected test results of the Erk2, PI3Kalpha assays are cited below. […] The kinase reaction was then stopped by adding 10 μl of the ALPHA bead mix (10 μg/ml, #6760617/PerkinElmer), pre-incubated with anti-phospho MBP antibody (320 μM, #05-429/Upstate), in 25 mM Tris, 200 mM NaCl, 100 mM EDTA and 0.3% BSA, and left to stand overnight. • b) PI3K-ALPHAs (e.g. PI3Kalpha): The test substance, 1 ng of PI3Kalpha (#14-602, Upstate), 100 μM ATP and 20 μM PIP2 substrate (#P4508, Echelon) on a 384-well Optiplate (Perkin Elmer) for 1 h in 50 mM Hepes, 50 mM NaCl, 5 mM MgCl2, 0.05% Chaps, 5 mM DTT at pH 7.4. Subsequently, the kinase reaction was stopped by adding the ALPHA bead mix (10 μg/ml, #6760603/PerkinElmer), preincubated with 1 nM GST:Grp1 fusion protein (Upstate) and 15 nM biotinylated PIP3 (#C-39B6/Echelon) in 50 mM Hepes, 50 mM NaCl, 50 mM EDTA and 0.1% BSA, and left to stand overnight.
(§3) The fluorescence was detected the next morning in a Fusion™ alpha instrument (Perkin Elmer).
(§4) The calculation of % inhibition values per substance concentration was done by means of the following formula from the raw data determined in the Fusion™ alpha:
(§5) The controls were each determined 8 times, the substance samples each twice. 0% control contained neither any ATP nor any substrate; the 100% control contained no test substance. The IC50 values were determined with GraphPadPrism.

Another series deals with Jnk1 + Jnk2. Kind of series: Cell-free kinase assay (ALPHA technology), Jnk1 + Jnk2. To be noted: at 10 μM or 100 μM* ATP, recombinant human kinases. It counts as biochemical. How it is done:
as §1, with “(PerkinElmer). […]” for “(PerkinElmer).”
as §3, §4, §5

In a further series the target is T2, Erk2.
T2 construct: in some cases as full-length kinases, in some cases as truncated fragments; purchased Upstate 14-173
As to the kind of experiment: Cell-free kinase assay (ALPHA technology), Erk2-ALPHA. It counts as biochemical. To be noted: 10 μM ATP, recombinant human kinase. How it is done:
as §1, §2, §3, §4, §5

Another series deals with T3, p38alpha (Homo sapiens, UniProt Q16539).
T3 construct: in some cases as full-length kinases, in some cases as truncated fragments
As to the kind of experiment: Cell-free kinase assay (ALPHA technology), p38alpha. The following applies: at 10 μM or 100 μM* ATP, recombinant human kinase. In kind it is biochemical. On the procedure: as §1, with “(PerkinElmer). […]” for “(PerkinElmer).”
as §3, §4, §5

Another series relates to Hct116. Kind of series: XTT assay, anti-proliferative action, Hct116. It counts as cell-based. The following applies: Homo sapiens, HCT-116, 45 h, Hct116 cells, 45 h incubation. How it is done:
(§6) The principle of this test is based on the intracellular reduction of the tetrazolium dye XTT (sodium 3′-[1-(phenylaminocarbonyl)-3,4-tetrazolium]bis(4-methoxy-6-nitro)benzenenesulphonic acid, Sigma) to a formazan dye by mitochondrial dehydrogenases.
(§7) The dye is formed only by metabolically active cells; its photometrically measurable intensity is a quantitative indicator for the presence of living cells. The reduction in the dye formation as a result of incubation of the cells with substances serves as a parameter for the anti-proliferative action.
(§8) The tumour cell lines (ATCC) were seeded in 96-well microtitre plates in a defined cell count (5000 cells/well for BxPC3 and Hct116; 10 000 cells/well for MDA MB468), and then incubated overnight in an incubator at 37° C., 5% CO2 and 95% air humidity. The test substances were made up as stock solutions (10 mM) in DMSO. […] The cell plates were then incubated for 45 h in an incubator at 37° C., 5% CO2 and 95% air humidity.
(§9) For the detection reaction, the XTT substrate was admixed with PMS (N-methyldibenzopyrazine methylsulphate, Sigma) and added to the cells, so as to result in a final concentration of 325 μg of XTT/ml and 2.5 μg PMS/ml. The mixture was then incubated for 3 h at 37° C., 95% air humidity. Subsequently the formazan salt formed by cellular dehydrogenases was quantified at an absorption of 490 nm.
(§10) The evaluation of the % inhibition values was done by means of the following formula from the values for the optical densities measured in each case at 490 nm:
(§11) The controls were determined 8 times each, the substance samples twice each. 0% control contained no cells; the 100% control contained no test substance. The EC50 values were determined with GraphPadPrism.

The subject of another series is BxPC3. As to the kind of experiment: XTT assay, anti-proliferative action, BxPC3. The following applies: Homo sapiens, BXPC-3, 45 h, BxPC3 cells, 45 h incubation. In kind it is cell-based. How it is done:
as §6, §7, §8, §9, §10, §11
On the technique in general: Tetrazolium assays rely on reduction of a dye to a coloured formazan, in cell work by metabolically active cells.

The next series has as its system MDA-MB468. Kind of series: XTT assay, anti-proliferative action, MDA-MB468. The following applies: Homo sapiens, MDA-MB-468, 45 h, MDA-MB468 cells, 45 h incubation. It counts as cell-based. On the procedure: as §6, §7, §8, §9, §10, §11

Structures can show the parent of a compound that is named as a salt. A value given as a limit tells only on which side of the number the result lay.

T1 sequence (P42336 whole entry, the tested form may be a part): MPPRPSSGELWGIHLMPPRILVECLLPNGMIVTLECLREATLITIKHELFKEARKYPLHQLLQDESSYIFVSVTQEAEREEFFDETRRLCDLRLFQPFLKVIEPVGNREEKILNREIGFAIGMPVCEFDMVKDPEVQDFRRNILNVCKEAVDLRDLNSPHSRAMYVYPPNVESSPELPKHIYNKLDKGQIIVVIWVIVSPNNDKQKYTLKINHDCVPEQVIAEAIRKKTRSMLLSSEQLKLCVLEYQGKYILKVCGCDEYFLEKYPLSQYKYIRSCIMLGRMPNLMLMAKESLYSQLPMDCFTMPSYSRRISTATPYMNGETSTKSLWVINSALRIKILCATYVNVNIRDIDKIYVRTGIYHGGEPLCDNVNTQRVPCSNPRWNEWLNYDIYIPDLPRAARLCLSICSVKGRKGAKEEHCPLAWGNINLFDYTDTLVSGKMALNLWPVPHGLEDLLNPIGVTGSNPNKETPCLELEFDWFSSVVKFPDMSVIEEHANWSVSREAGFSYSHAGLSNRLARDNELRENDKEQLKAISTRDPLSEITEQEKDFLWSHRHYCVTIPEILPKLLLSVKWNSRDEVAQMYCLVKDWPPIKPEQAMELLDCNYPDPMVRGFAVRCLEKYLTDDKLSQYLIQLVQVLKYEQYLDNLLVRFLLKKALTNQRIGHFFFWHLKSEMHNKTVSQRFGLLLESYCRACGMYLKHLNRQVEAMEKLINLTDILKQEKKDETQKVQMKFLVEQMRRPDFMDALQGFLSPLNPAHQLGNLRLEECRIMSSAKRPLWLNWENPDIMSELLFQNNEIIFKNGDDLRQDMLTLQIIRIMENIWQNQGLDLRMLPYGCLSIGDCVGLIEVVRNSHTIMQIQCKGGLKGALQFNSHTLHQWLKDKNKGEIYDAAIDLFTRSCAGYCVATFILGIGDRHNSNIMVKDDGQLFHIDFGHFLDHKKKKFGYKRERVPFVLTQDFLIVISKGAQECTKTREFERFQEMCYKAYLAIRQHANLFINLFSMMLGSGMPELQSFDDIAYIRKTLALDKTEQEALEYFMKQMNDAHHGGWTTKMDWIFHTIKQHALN
T1 sequence (P27986 whole entry partner, the tested form may be a part): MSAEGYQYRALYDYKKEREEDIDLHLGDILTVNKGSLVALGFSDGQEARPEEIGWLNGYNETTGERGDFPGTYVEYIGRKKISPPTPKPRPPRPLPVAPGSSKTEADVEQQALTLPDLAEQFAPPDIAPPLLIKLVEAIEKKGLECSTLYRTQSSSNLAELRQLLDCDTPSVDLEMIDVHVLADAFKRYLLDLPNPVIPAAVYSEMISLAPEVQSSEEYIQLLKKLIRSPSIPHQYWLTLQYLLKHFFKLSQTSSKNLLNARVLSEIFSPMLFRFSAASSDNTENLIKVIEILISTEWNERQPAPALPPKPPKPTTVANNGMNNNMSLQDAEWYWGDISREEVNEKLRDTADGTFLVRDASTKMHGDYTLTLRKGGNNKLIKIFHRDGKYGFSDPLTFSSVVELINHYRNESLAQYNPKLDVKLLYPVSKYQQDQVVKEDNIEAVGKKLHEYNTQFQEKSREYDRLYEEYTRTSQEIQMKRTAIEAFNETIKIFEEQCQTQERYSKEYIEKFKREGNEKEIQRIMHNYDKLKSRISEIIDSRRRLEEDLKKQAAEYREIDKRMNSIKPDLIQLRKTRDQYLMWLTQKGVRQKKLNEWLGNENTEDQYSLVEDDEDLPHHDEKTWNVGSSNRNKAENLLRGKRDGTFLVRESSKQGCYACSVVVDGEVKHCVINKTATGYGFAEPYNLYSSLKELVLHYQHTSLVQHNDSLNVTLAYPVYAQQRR
T3 sequence (Q16539 whole entry, the tested form may be a part): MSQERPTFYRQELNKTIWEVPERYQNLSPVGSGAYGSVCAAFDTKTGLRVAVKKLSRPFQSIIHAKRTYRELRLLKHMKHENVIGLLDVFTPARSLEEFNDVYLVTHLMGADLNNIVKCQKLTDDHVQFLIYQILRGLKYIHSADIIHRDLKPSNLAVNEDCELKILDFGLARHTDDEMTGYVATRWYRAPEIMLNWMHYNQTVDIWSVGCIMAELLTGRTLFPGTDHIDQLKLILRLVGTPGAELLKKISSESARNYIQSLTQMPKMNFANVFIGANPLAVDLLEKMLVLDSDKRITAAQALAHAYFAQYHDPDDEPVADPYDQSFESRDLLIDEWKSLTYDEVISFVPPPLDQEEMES
T2 sequence (P63085 whole entry, the tested form may be a part): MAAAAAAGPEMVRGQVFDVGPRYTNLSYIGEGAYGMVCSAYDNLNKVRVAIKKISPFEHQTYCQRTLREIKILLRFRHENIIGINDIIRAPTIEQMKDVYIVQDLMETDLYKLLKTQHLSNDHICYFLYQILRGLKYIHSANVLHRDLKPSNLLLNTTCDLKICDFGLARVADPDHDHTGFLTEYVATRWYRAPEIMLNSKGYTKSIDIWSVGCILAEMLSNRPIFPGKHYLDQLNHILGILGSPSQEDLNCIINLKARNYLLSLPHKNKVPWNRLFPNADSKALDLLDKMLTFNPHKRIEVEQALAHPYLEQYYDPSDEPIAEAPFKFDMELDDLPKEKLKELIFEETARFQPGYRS

By IC50 is commonly meant the midpoint of a concentration-inhibition curve. The term melting point denotes the temperature, or range, at which the solid turns liquid. On to `CCNC(=O)Nc1ccc2ncc(-c3ccc(OC(=O)N(C)C)cc3)nc2n1` [Compound 19, 4-[6-(3-Ethylurea)pyrido[2,3-b]pyrazin-3-yl]phenyl dimethylcarbamate], for which the melting point is > 230 °C (dec.). Further, on PI3Kalpha, the 50% inhibitory concentration (IC50) was determined as 2.3 µM. Moreover, the IC50 with Jnk1 + Jnk2 was 10.1 µM. For the same compound, at Erk2, the IC50 was 3.9 µM.

Turning to `C=CCONC(=O)Nc1ccc2ncc(-c3ccccc3)nc2n1` [Compound 8, 1-Allyloxy-3-(3-phenylpyrido[2,3-b]pyrazin-6-yl)urea], the values for the IC50 at p38alpha and in the series on Jnk1 + Jnk2 were > 100 µM and 19.4 µM, respectively.

As to `CCNC(=O)Nc1ccc2ncc(-c3ccc(CN4CCOCC4)cc3)nc2n1` [Compound 28, 1-Ethyl-3-[3-(4-morpholin-4-ylmethylphenyl)pyrido[2,3-b]pyrazin-6-yl]urea], the IC50 was > 100 µM at p38alpha, 1.8 µM at PI3Kalpha, 5 µM with Jnk1 + Jnk2 and 0.364 µM on Erk2.

For orientation: EC50 means the midpoint of the concentration-response curve. A high value points to a less potent agent. As to `CCNC(=O)Nc1ccc2ncc(-c3cccc(OC(=O)OCCOC)c3)nc2n1` [Compound 16, 3-[6-(3-Ethylurea)pyrido[2,3-b]pyrazin-3-yl]phenyl 2-methoxyethyl carbonate], the EC50 was 11 µM in the series on Hct116, > 25 µM with BxPC3 and 11 µM with MDA-MB468. Also, the IC50 on PI3Kalpha was 3.3 µM; with Jnk1 + Jnk2, 5.6 µM; at Erk2, 0.513 µM.

As to `CCNC(=O)Nc1ccc2ncc(-c3ccc(NC(=O)COCCOC)cc3)nc2n1` [Compound 30, N-{4-[6-(3-Ethylurea)pyrido[2,3-b]pyrazin-3-yl]phenyl}-2-(2-methoxyethoxy)acetamide], the melting point was 212 to 215 °C. In addition, the IC50 at PI3Kalpha was 0.749 µM. For the same compound, the IC50 with Jnk1 + Jnk2 was 13.8 µM. The IC50 at Erk2 was > 31.6 µM.

Regarding `CCNC(=O)Nc1ccc2ncc(Nc3ccc(S(C)(=O)=O)cc3)nc2n1` [Compound 48, 1-Ethyl-3-[3-(4-methanesulphonylphenylamino)pyrido[2,3-b]pyrazin-6-yl]urea], the melting point lay in the range of 275 to 280 °C. Besides, the IC50 on p38alpha is > 100 µM. Besides, the IC50 at PI3Kalpha was determined as 1.1 µM. Moreover, the IC50 with Jnk1 + Jnk2 is > 31.6 µM. Further, the IC50 at Erk2 was > 100 µM.

The compound `CCNC(=O)Nc1ccc2ncc(-c3ccc(NC(=O)OC(C)(C)C)cc3)nc2n1` [Compound 21, tert-Butyl {4-[6-(3-ethylurea)pyrido[2,3-b]pyrazin-3-yl]phenyl}carbamate] registered a melting point of 281 to 283 °C. In addition, at PI3Kalpha, the IC50 was determined as 1.2 µM. Besides, the IC50 with Jnk1 + Jnk2 is > 31.6 µM. Also, the IC50 at Erk2 was > 100 µM.

Take `CCNC(=O)Nc1ccc2ncc(-c3ccc(OC(=O)N(CC)CC)cc3)nc2n1` [Compound 12, 4-[6-(3-Ethylurea)pyrido[2,3-b]pyrazin-3-yl]phenyl diethylcarbamate]: the results for the IC50 at p38alpha and with Jnk1 + Jnk2 were 8.8 µM and 0.637 µM, respectively.

Turning to `CONC(=O)Nc1ccc2ncc(-c3ccc(O)c(OC)c3)nc2n1` [Compound 61, 1-Methoxy-3-[3-(4-hydroxy-3-methoxy-phenyl)-pyrido[2,3-b]pyrazin-6-yl]-urea], the values for the EC50 with Hct116 and in the series with MDA-MB468 were 6 µM and 7.1 µM, respectively. Also, the IC50 was > 100 µM on p38alpha, 1.5 µM on PI3Kalpha, 2.1 µM in the series with Jnk1 + Jnk2 and 0.3 µM at Erk2.

On to `CONC(=O)Nc1ccc2ncc(-c3ccccc3)nc2n1` [Compound 7, 1-Methoxy-3-(3-phenylpyrido[2,3-b]pyrazin-6-yl)urea], for which the IC50 is > 100 µM at p38alpha and 11.4 µM with Jnk1 + Jnk2.

For `CCNC(=O)Nc1ccc2ncc(-c3ccc(NC(=O)OCCOC)cc3)nc2n1` [Compound 22, 2-Methoxyethyl {4-[6-(3-ethylurea)pyrido[2,3-b]pyrazin-3-yl]phenyl}carbamate], the melting point was in the range of 249 to 251 °C. Also, on PI3Kalpha, the IC50 came to 1.2 µM. The IC50 with Jnk1 + Jnk2 is > 31.6 µM. In addition, the IC50 at Erk2 is > 100 µM.

For the compound `CCNC(=O)Nc1ccc2ncc(-c3ccc(OCCOCCOC)cc3)nc2n1` [Compound 29, 1-Ethyl-3-(3-{4-[2-(2-methoxyethoxy)ethoxy]phenyl}pyrido[2,3-b]pyrazin-6-yl)urea], the IC50 was > 100 µM on p38alpha, 2.3 µM on PI3Kalpha, 24.2 µM in the series with Jnk1 + Jnk2 and 0.396 µM at Erk2.

On to `CCNC(=O)Nc1ccc2ncc(Nc3ccc(CN4CCCCC4)cc3)nc2n1` [Compound 51, 1-Ethyl-3-[3-(4-piperidin-1-ylmethylphenylamino)pyrido[2,3-b]pyrazin-6-yl]urea], for which the melting point was in the range of 221 to 224 °C. Further, the IC50 at p38alpha was > 100 µM. Besides, the IC50 at PI3Kalpha worked out at 7.5 µM. The IC50 in the series with Jnk1 + Jnk2 is > 31.6 µM. Also, at Erk2, the IC50 came out at 19.1 µM.

Consider `COCCOC(=O)Oc1ccc(-c2cnc3ccc(NC(=O)NCCCCO)nc3n2)cc1` (as salt: hydrochloride) [Compound 58, 4-{6-[3-(4-Hydroxybutyl)urea]pyrido[2,3-b]pyrazin-3-yl}phenyl 2-methoxyethyl carbonate hydrochloride], for which the melting point lay in the range of 165 to 168 °C.

Compound `CCNC(=O)Nc1ccc2ncc(Nc3ccc(-c4ccsc4)cc3)nc2n1` [Compound 52, 1-Ethyl-3-[3-(4-thiophen-3-ylphenylamino)pyrido[2,3-b]pyrazin-6-yl]urea] yielded a melting point of 264 to 267 °C.

In the case of `CCNC(=O)Nc1ccc2ncc(/C=C/C3CCCCC3)nc2n1` [Compound 5, 1-[3-((E)-2-Cyclohexylvinyl)pyrido[2,3-b]pyrazin-6-yl]-3-ethylurea], the melting point is 202 to 204 °C (dec.).

Regarding `CCNC(=O)Nc1ccc2ncc(Nc3cccc(C(=O)NC)c3)nc2n1` [Compound 50, 3-[6-(3-Ethylurea)pyrido[2,3-b]pyrazin-3-ylamino]-N-methylbenzamide], the melting point lay within 228 to 234 °C. The IC50 at p38alpha is 18.1 µM. Moreover, the IC50 on PI3Kalpha came out at 0.683 µM. In the series on Jnk1 + Jnk2, the IC50 was > 31.6 µM. In addition, at Erk2, the IC50 is 4.7 µM.

Regarding `CCNC(=O)Nc1ccc2ncc(-c3ccc(OC(=O)/C=C/c4ccccc4)cc3)nc2n1` [Compound 13, 4-[6-(3-Ethylurea)pyrido[2,3-b]pyrazin-3-yl]phenyl (E)-3-phenylacrylate], the melting point lay within 236 to 238 °C. The IC50 in the series on Jnk1 + Jnk2 was > 100 µM. For the same compound, the IC50 at Erk2 amounted to 0.64 µM.

The values above are taken from US8217042B2, “Pyridopyrazines and their use as modulators of kinases” (Zentaris GmbH, priority 2005, dated 2012).
